From patent US20210382058A1, “PATIENT SELECTION FOR TREATMENT OF MYC POSITIVE CANCERS WITH INDENOISOQUINOLINES” (Purdue Research Foundation, priority 2020, published 2021)
Like-named read-outs stand apart in the source and are kept apart here.

Columns and labels:
[1] = molecular target: T1, human topoisomerase I (Homo sapiens, UniProt P11387); settings: relative topoisomerase I inhibition levels, previously determined, six levels (0 - 5, +++++ = 5); cited from earlier work
T1 sequence (P11387 1-765): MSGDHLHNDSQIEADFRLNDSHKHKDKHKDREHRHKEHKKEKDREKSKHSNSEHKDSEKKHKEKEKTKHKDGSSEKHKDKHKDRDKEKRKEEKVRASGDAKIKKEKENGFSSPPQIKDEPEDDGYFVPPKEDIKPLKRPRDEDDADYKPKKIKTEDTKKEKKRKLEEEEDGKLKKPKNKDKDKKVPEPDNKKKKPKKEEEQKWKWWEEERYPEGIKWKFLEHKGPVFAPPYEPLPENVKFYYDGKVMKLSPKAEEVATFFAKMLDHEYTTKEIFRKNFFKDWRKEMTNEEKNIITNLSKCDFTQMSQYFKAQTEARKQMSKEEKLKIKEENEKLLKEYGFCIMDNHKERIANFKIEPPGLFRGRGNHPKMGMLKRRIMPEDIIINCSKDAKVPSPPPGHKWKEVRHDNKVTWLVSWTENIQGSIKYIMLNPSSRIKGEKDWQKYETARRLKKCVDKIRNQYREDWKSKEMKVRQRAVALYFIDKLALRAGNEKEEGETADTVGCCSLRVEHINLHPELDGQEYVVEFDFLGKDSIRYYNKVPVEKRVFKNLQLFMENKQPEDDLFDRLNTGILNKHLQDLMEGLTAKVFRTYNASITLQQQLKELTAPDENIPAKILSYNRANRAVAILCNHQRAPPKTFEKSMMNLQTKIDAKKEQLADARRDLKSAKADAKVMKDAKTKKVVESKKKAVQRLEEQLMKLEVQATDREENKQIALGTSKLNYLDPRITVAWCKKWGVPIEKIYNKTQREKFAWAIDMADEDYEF

[2] = system: NCI-60 cancer cell lines; assay: NCI-60 cancer cell line drug screen (GI50, MGM); format: cell-based, human; settings: Homo sapiens; for GI50: read-out: Antiproliferative Activities [GI50 (μM)]
Procedure: Cancer cells were incubated with the test compounds at five concentrations ranging from 100 μM to 10 nM for 48 h. […] The approximate average of GI50 values across the entire panel of NCI-60 cancer cell lines for each compound was recorded as the MGM value.

[3] = system: MYC protein expression in MCF-7 breast cancer cells; assay: Western blotting of MYC protein level in MCF-7 cells; format: cell-based, human; settings: Homo sapiens, MCF7; western blotting, MCF-7 cells, 0.5, 1, 2, and 4 μM, 24 hours; read-out: MYC Inhibition
Method in brief: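 Immunoblotting with ECL detection quantified MYC, with GAPDH (1:2000) as reference and anti-MYC at 1:1000.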

CN(C)CCCn1c2c(c3cccnc3c1=O)C(=O)c1ccccc1-2 [Compound 20]
Top1 Inhibiton [1]: +++ (strong inhibition, +++, MYC expression inhibited at 0.5 to 1.0 μM) | GI50 ([2]; 786-0, Renal Cancer, 786-0): 1.16 µM | GI50 ([2]; A549, Non-Small Cell Lung Cancer, A549/ATCC): 0.59 µM | GI50 ([2]; ACHN, Renal Cancer, ACHN): 0.29 µM | GI50 ([2]; BT-549, Breast Cancer, BT-549): 1.67 µM | GI50 ([2]; CAKI-1, Renal Cancer, CAKI-1): 0.57 µM | GI50 ([2]; CCRF-CEM, Leukemia, CCRF-CEM): 1.37 µM | GI50 ([2]; COLO 205, Colon Cancer, COLO 205): 0.47 µM | GI50 ([2]; DU-145, Prostate Cancer, DU-145): 1.89 µM | GI50 ([2]; HCC 2998, Colon Cancer, HCC-2998): 2.17 µM | GI50 ([2]; HCT-15, Colon Cancer, HCT-15): 1.03 µM | GI50 ([2]; HCT-116, Colon Cancer, HCT-116): 0.44 µM | GI50 ([2]; HL-60, Leukemia, HL-60(TB)): 1.8 µM | GI50 ([2]; HOP-62, Non-Small Cell Lung Cancer, HOP-62): 1.25 µM | GI50 ([2]; HOP-92, Non-Small Cell Lung Cancer, HOP-92): 1.42 µM | GI50 ([2]; HT-29, Colon Cancer, HT29): 1.01 µM | GI50 ([2]; Hs-578T, Breast Cancer, HS 578T): 3.08 µM | GI50 ([2]; IGROV-1, Ovarian Cancer, IGROV1): 1.91 µM | GI50 ([2]; K562, Leukemia, K-562): 1.42 µM | GI50 ([2]; KM12, Colon Cancer, KM12): 1.61 µM | GI50 ([2]; LOX IMVI, Melanoma, LOX IMVI): 0.81 µM | GI50 ([2]; Leukemia, SR): 0.31 µM | GI50 ([2]; MCF7, Breast Cancer, MCF7): 0.37 µM | GI50 ([2]; MDA-MB-231, Breast Cancer, MDA-MB-231/ATCC): 2.58 µM | GI50 ([2]; MDA-MB-435, Melanoma, MDA-MB-435): 1.93 µM | GI50 ([2]; MDA-MB-468, Breast Cancer, MDA-MB-468): 1.57 µM | GI50 ([2]; MOLT-4, Leukemia, MOLT-4): 0.29 µM | GI50 ([2]; Melanoma, M14): 1.57 µM | GI50 ([2]; NCI-H23, Non-Small Cell Lung Cancer, NCI-H23): 1.86 µM | GI50 ([2]; NCI-H226, Non-Small Cell Lung Cancer, NCI-H226): 1.32 µM | GI50 ([2]; NCI-H322M, Non-Small Cell Lung Cancer, NCI-H322M): 2.47 µM | GI50 ([2]; NCI-H460, Non-Small Cell Lung Cancer, NCI-H460): 0.41 µM | GI50 ([2]; NCI-H522, Non-Small Cell Lung Cancer, NCI-H522): 1.84 µM | GI50 ([2]; OVCAR-3, Ovarian Cancer, OVCAR-3): 2.41 µM | GI50 ([2]; OVCAR-4, Ovarian Cancer, OVCAR-4): 1.93 µM | GI50 ([2]; OVCAR-5, Ovarian Cancer, OVCAR-5): 2.44 µM | GI50 ([2]; OVCAR-8, Ovarian Cancer, OVCAR-8): 0.95 µM | GI50 ([2]; Ovarian Cancer, NCl/ADR-RES): 2.72 µM | GI50 ([2]; Prostate Cancer, PC-3): 2.05 µM | GI50 ([2]; RPMI-8226, Leukemia, RPMI-8226): 1.84 µM | GI50 ([2]; RXF 393, Renal Cancer, RXF 393): 2.31 µM | GI50 ([2]; Renal Cancer, U0-31): 0.57 µM | GI50 ([2]; SF-268, CNS Cancer, SF-268): 2.15 µM | GI50 ([2]; SF-295, CNS Cancer, SF-295): 0.75 µM | GI50 ([2]; SF-539, CNS Cancer, SF-539): 0.85 µM | GI50 ([2]; SK-MEL-2, Melanoma, SK-MEL-2): 3.92 µM | GI50 ([2]; SK-MEL-5, Melanoma, SK-MEL-5): 1 µM | GI50 ([2]; SK-MEL-28, Melanoma, SK-MEL-28): 1.56 µM | GI50 ([2]; SK-OV-3, Ovarian Cancer, SK-OV-3): 2.22 µM | GI50 ([2]; SN12C, Renal Cancer, SN12C): 1.12 µM | GI50 ([2]; SNB-19, CNS Cancer, SNB-19): 1.75 µM | GI50 ([2]; SNB-75, CNS Cancer, SNB-75): 0.66 µM | GI50 ([2]; SW-620, Colon Cancer, SW-620): 0.46 µM | GI50 ([2]; T47D, Breast Cancer, T-47D): 2.04 µM | GI50 ([2]; TK-10, Renal Cancer, TK-10): 3.02 µM | GI50 ([2]; U-251, CNS Cancer, U251): 1.05 µM | GI50 ([2]; UACC-62, Melanoma, UACC-62): 1.3 µM | GI50 ([2]; UACC-257, Melanoma, UACC-257): 2.02 µM | mean GI50 across NCI-60 panel (MGM) ([2]; average of GI50 values across the entire panel of NCI-60 cancer cell lines): 1.26 µM | minimal effective concentration [3]: 4 µM
